“And” between values parts separate entries of the source, which are not always exact repeats. Equal values may be shown once.
Test: Solubility assessment as a function of HPβCD concentration
Type: physicochemical
Method: Solubility studies were performed by the addition of a known mass of 5(6)-methoxy-2-[[(4-methoxy-3,5-dimethyl-2-pyridinyl)-methyl]sulfinyl]-1H- benzimidazole and/or HPβCD to a given volume of solvent system. Solubilities were determined by observation, as the maximum concentration at which 5(6)-methoxy-2-[[(4-methoxy-3,5-dimethyl-2-pyridinyl)-methyl]sulfinyl]-1H- benzimidazole completely dissolved. Additionally, concentrations of 5(6)-methoxy-2-[[(4-methoxy-3,5-dimethyl-2-pyridinyl)-methyl]sulfinyl]-1H- benzimidazole and HPβCD at set molar ratios were solubilized in systems of high pH (adjusted as high as 12.2, with 1N NaOH), the pH was adjusted (using 2N HCl) in a stepwise downward manner until precipitation occurred.
The solubility of 5(6)-methoxy-2-[[(4-methoxy-3,5-dimethyl-2-pyridinyl)-methyl]sulfinyl]-1H- benzimidazole was assessed as a function of HPβCD concentration in water.
The procedure according to Example 86 was repeated except that water with a borate buffer (pH of 8) was employed.
The procedure according to Example 86 was repeated except that water with a phosphate buffer (pH of 11) was employed.

In the case of COc1ccc2[nH]c([S+]([O-])Cc3ncc(C)c(OC)c3C)nc2c1 (stereo not drawn) [5(6)-methoxy-2-[[(4-methoxy-3,5-dimethyl-2-pyridinyl)-methyl]sulfinyl]-1H-benzimidazole], the “dependence of solubility on HPβCD concentration” value (water with a borate buffer (pH of 8)) is reported as “increase linearly as a function of HPβCD concentration”, the “dependence of solubility on HPβCD concentration” value (water with a phosphate buffer (pH of 11)) is reported as “increase linearly as a function of HPβCD concentration” and the solubility (water, read-out: aqueous solubility in water) is reported as ~300 µg/mL and ~900 µM.

— patent US6262086A, “Pharmaceutical unit dosage form” (priority 2000, dated 2001)
